Laboratory results taken from patent US9737502B2, “Calebin A for hepatic steatosis” (SAMI LABS LIMITED, priority 2011, dated 2017).

Experiments:
[1] = Study I: HFD-fed mice, diet supplementation 12 weeks; body weight, food intake, relative organ weights; details: for wt gain / Final wt / relative organ weight: Kidney / relative organ weight: liver: 12 weeks; for wt gain: HFD 16.50 ± 2.90; for Final wt: HFD 38.63 ± 3.92; for relative organ weight: Kidney / relative organ weight: liver: percentage of body weight; for Initial wt: baseline
Experimental: Male C57BL/6J mice at 5 weeks of age were purchased from the BioLASCO Experimental Animal Center (Taiwan Co., Ltd., Taipei, Taiwan) and housed in a controlled atmosphere (25±1° C. at 50% relative humidity) and with a 12-h light/12-h dark cycle. […] Animals had free access to food and water at all times. Food cups were replenished with fresh diet daily. The diet intake of animals was monitored every day and the body weight was recorded weekly. […] At the end of the study, all animals were fasted overnight and sacrificed by CO2 asphyxiation. Blood samples were collected from the heart for biochemical analysis. Liver, spleen, kidney and fat pads (perigonadal, retroperitoneal and mesenteric fat) were immediately removed, weighed (TABLE VI) and photographed. […] Body weight was monitored weekly, and the average body weight of each group was expressed as the mean±SE. Statistical analysis was done by Student's t test. (*) P<0.01, compared with ND group; (#) P<0.01, compared with HFD group.

mice = test: Acute oral toxicity of Calebin A; format: in vivo
Experimental: No mortality was observed up to 2000 mg/kg p.o. in mice up to two weeks of observation.

TNF-α [2] = test: Intracellular TNF-α in LPS-stimulated murine neutrophils (flow cytometry); format: cell-based; details: for Expression of TNF-α Mean ± S.E: LPS Control 2.62 ± 0.01
Experimental: The present inventors also adduce extra evidence to support the ability of Calebin A to suppress intracellular TNF and extracellular IL-1β in murine neutrophil systems (Table II, Table III). Neutrophils are isolated by histopaque gradient method tested for their ability to produce in vitro TNF-α following stimulation with Lipopolysaccharide (LPS). The cells were incubated with phycoerythrin (PE)-labeled anti-mouse TNF-α in the dark, and after being washed with sterile PBS, samples were resuspended in PBS (pH 7.4) and acquired directly on the flow cytometer (BDLSR; Becton Dickinson). A fluorescence trigger was set on the PE […] parameter of the gated neutrophil populations (10,000 events). Rolipram at 100 μg/ml was used as standard inhibitor of TNF-α in this study. Fluorescence compensation, data analysis, and data presentation were performed using Cell Quest Pro software (Becton Dickinson).

TNF-α [3] = test: Estimation of TNF-α in adipocyte supernatant by ELISA; format: cell-based; details: human adipocytes
Experimental: 3T3-L1 cells approximately 60×10^4 cells are seeded for 48-72 hrs to get 70-80% confluence. After 48 hrs 200 μl of AIM (Adipogenesis induction medium) freshly prepared is added. 72 hrs later 200 μl APM (Adipogenesis progression medium) with the test compounds in different concentrations is added to the wells. The cells are incubated for 48 hrs in a humidified atmosphere (37° C.) of 5% CO2 and 95% air. The supernatant is collected and stored for the estimation of leptin, adiponectin, IL-6 and TNF-α by ELISA. Cells are fixed by adding 100 μl of 10% formalin and ORO staining is done. OD is read at 492 nm in microplate reader. The results are expressed as IC50 values using Graphpad prism software.
The percentage of inhibition of adipogenesis is calculated as follows, % inhibition=C−T/[…] Where C-absorbance of Oil red 0 in differentiating/undifferentiated cells T-absorbance of Oil Red-O in sample treated differentiating/undifferentiated cells. The estimation of leptin, adiponectin, IL-6 and TNF-α is done according to user's manual from R&D Systems.

leptin = test: Study 2: serum leptin by ELISA in obese mice; format: in vivo, C57 mice; details: Study 2, end of study period
Experimental: Further, on completion of the study period blood samples were collected from all the animals in […] for estimation of systemic expression of leptin and adiponectin. Blood samples were collected humanely from retro-orbital plexus puncture method under mild ether anesthesia with the help of a fine capillary tube. The blood samples collected in tubes without anticoagulant were centrifuged at 3000 rpm for 10 minutes to obtain serum which was subjected to ELISA technique for the estimation of leptin and adiponectin. The import of leptin and adiponectin expression as biomarkers in obesity has been discussed in aforesaid paragraphs. […] Low systemic adiponectin levels have been cited as predictive factors in the progression of disease states like Type II Diabetes mellitus (Chamukuttan Snehalatha et al, “Plasma Adiponectin Is an Independent Predictor of Type 2 Diabetes in Asian Indians”, Diabetes Care December 2003 vol. 26 no. 12 3226-3229).

COc1cc(/C=C/C(=O)COC(=O)/C=C/c2ccc(O)c(OC)c2)ccc1O [Calebin A]
wt gain ([1]; HFD + 0.25% Calebin A): 13.02 ± 2.52 g
Final wt ([1]; HFD + 0.25% Calebin A): 35.28 ± 2.38 g
relative organ weight: Kidney ([1]; HFD + 0.25% Calebin A): 1.22 ± 0.12%
relative organ weight: liver ([1]; HFD + 0.25% Calebin A): 4.05 ± 0.28%
Initial wt ([1]; HFD + 0.25% Calebin A): 22.27 ± 0.49 g
wt gain ([1]; HFD + 1% Calebin A): 10.12 ± 2.48 g
Final wt ([1]; HFD + 1% Calebin A): 31.99 ± 2.50 g
relative organ weight: Kidney ([1]; HFD + 1% Calebin A): 1.30 ± 0.15%
relative organ weight: liver ([1]; HFD + 1% Calebin A): 4.00 ± 0.25%
Initial wt ([1]; HFD + 1% Calebin A): 21.88 ± 0.91^ g
Autonomic Nervous System: Atexia (mice; mouse, in vivo, po): Atexia = Nil
Autonomic Nervous System: Diarrhea (mice; mouse, in vivo, po): Diarrhea = Nil
Autonomic Nervous System: Motor Activity (mice; mouse, in vivo, po): Motor Activity = Normal
Autonomic Nervous System: Respiration Rate (mice; mouse, in vivo, po): Respiration Rate = Normal
Central Nervous System: Clonic Convulsions (mice; mouse, in vivo, po): Clonic Convulsions = Nil
Central Nervous System: Excitation (mice; mouse, in vivo, po): Excitation = Nil
Central Nervous System: Motor Activity (mice; mouse, in vivo, po): Motor Activity = Nil
Central Nervous System: Tonic Convulsion (mice; mouse, in vivo, po): Tonic Convulsion = Nil
Central Nervous System: Tremors (mice; mouse, in vivo, po): Tremors = Nil
Dermal: Blanching (mice; mouse, in vivo, po): Blanching = Nil
Dermal: Cyanosis (mice; mouse, in vivo, po): Cyanosis = Nil
Dermal: Hyperaemia (mice; mouse, in vivo, po): Hyperaemia = Nil
Food and Water (Intake and Excretion): Fecal Output (mice; mouse, in vivo, po): Fecal Output = Normal
Food and Water (Intake and Excretion): Urine Output (mice; mouse, in vivo, po): Urine Output = Normal
General Behaviour: Aggression (mice; mouse, in vivo, po): Aggression = Nil
General Behaviour: Fear (mice; mouse, in vivo, po): Fear = Nil
General Behaviour: General Locomotor Activity (mice; mouse, in vivo, po): Normal
General Behaviour: General Movement (mice; mouse, in vivo, po): General Movement = Normal
General Behaviour: Passive (mice; mouse, in vivo, po): Passive = Nil
General Parameters: Diarrhea (mice; mouse, in vivo, po): Diarrhea = Nil
General Parameters: Muscular Weakness (mice; mouse, in vivo, po): Muscular Weakness = Nil
General Parameters: Pilo Erection (mice; mouse, in vivo, po): Pilo Erection = Nil
General Parameters: Salivation (mice; mouse, in vivo, po): Salivation = Nil
Reflexes: Corneal (mice; mouse, in vivo, po): Corneal = No effect
Reflexes: Pinnal (mice; mouse, in vivo, po): Pinnal = No effect
Respiratory System: Respiration Depth (mice; mouse, in vivo, po): Respiration Depth = Normal
Respiratory System: Respiration Rate (mice; mouse, in vivo, po): Respiration Rate = Normal
mortality (mice; up to 2000 mg/kg p.o., up to two weeks of observation): No mortality
% Activity (suppression of TNF-α expression) (TNF-α [2]; 0.5 μg/ml): 28.62%↓
Expression of TNF-α Mean ± S.E (TNF-α [2]; 0.5 μg/ml): 1.87 ± 0.04
% Activity (suppression of TNF-α expression) (TNF-α [2]; 1.0 μg/ml): 35.11%↓
Expression of TNF-α Mean ± S.E (TNF-α [2]; 1.0 μg/ml): 1.70 ± 0.02
% Activity (suppression of TNF-α expression) (TNF-α [2]; 2.0 μg/ml): 39.31%↓
Expression of TNF-α Mean ± S.E (TNF-α [2]; 2.0 μg/ml): 1.59 ± 0.05
percentage inhibition of TNF-α (TNF-α [3]; 0.5 μg/ml): 36.03%
percentage inhibition of TNF-α (TNF-α [3]; 1.0 μg/ml): 40.81%
percentage inhibition of TNF-α (TNF-α [3]; 2.0 μg/ml): 45.47%
inhibition of leptin expression in the serum of obese animals (leptin): insignificant effect
